The nature of data set [1]: Thermogravimetric analysis (TGA), thermal stability. As to conditions: for Tonset / Tpeak / Tstart: 10 °C min^−1, N2 atmosphere; for Residue at 500 °C: mass residue remaining at 500 °C; for Tpeak: temperature at highest degradation rate; for Tstart: temperature where weight loss starts. In kind it is physicochemical. The protocol:
Thermogravimetric analysis (TGA) was executed using a Hi-Res modulated TGA 2950 thermogravimetric analyzer (TA Instruments, New Castle, DE, USA) and curves were obtained for all GUMBOS. Approximately 1-3 mg of GUMBOS was placed in a platinum pan and heated from 25 °C to 575 °C at a slow heating rate of 10 °C min^-1. Some characteristic parameters were extrapolated. For DSC and TGA, onset temperatures (Tonset) were determined as the temperature value matching the intersection point of the extrapolated initial baseline and the tangent or line through the linear section of the leading edge of the Tpeak point where the Tpeak was the temperature value at the highest degradation rate. For TGA, additional data were collected such as the temperature value where weight loss starts ([…]), and the percentage of mass residue remaining at 500 °C which allows evaluation of the short-term stability. All these parameters were extrapolated using the software NETZSCH Proteus® version 6.1081 (Netzsch-Gerätebau GmbH, Selb, Germany) for DSC analysis and Universal Analysis 2000 version 4.5A (TA Instruments-Waters LLC, New Castle, DE, USA) for TGA analysis.

The conditions of data set [2]: TGA, parent compound; cited from earlier work.
Data set [3] relates to L929 mouse fibroblast cells. Put plainly: Cytotoxicity evaluation, resazurin reduction assay. In kind it is cell-based. As to conditions: 24 h exposure. The protocol:
To assess the impact of GUMBOS on cell viability, the resazurin assay was employed using L929 mouse fibroblast cells as described previously by Page et al.. The L929 cells were cultured at 37 °C in a 5% CO2 atmosphere, utilizing DMEM supplemented with 10% FBS and 1% streptomycin/gentamycin. Once the cell culture reached 70–80% confluence, it was detached using a 0.25% (w/v) trypsin-ethylenediaminetetraacetic acid (EDTA) solution. The cells were then subjected to centrifugation with the Heraeus Multifuge X1R centrifuge (Thermo Fisher Scientific; Waltham, MA, USA) and resuspended in fresh medium. Viable cell counts were obtained through a Neubauer chamber (Improved Neubauer Bright-Line, Boeco; Hamburg, Germany).
For experiments, L929 cells were seeded at a density of 5 × 10^4 cells per well in 96-well microplates and supplemented with DMEM medium. Plates were placed in a humidified incubator at 37 °C with 5% CO2 for 24 h to allow cell attachment and growth. Subsequently, the culture medium was replaced with different concentrations of each sample being tested. After 24h incubation, the medium was replaced with fresh culture medium containing 10% resazurin. Cells were then incubated for 4 h in the dark at 37 °C with 5% CO2 to allow resazurin conversion. Fluorescence of resorufin was measured using a plate reader (Synergy HT plate reader-Biotek Instruments, Winooski, VT, USA) with excitation at 560 nm and emission at 590 nm. Negative control wells contained only culture medium, while positive control wells contained the cation precursor, the active pharmaceutical ingredient. All experiments were conducted in triplicate.

In data set [4] the test system is Staphylococcus aureus subsp. aureus Rosenbach ATCC 25923. Briefly: Antibacterial susceptibility testing, broth microdilution, bacterial growth by absorbance at 630 nm. The class given is cell-based. The protocol:
To evaluate the antimicrobial profile, a study was performed using the broth microdilution standard method with minor modifications using DMSO as solvent. Standard laboratory strains of Gram-positive Staphylococcus aureus subsp. aureus Rosenbach ATCC 25923 and Gram-negative Escherichia coli O157:H7 were studied. TSB was used as the culture medium for bacteria and samples with bacteria in media were considered positive controls.
Antibacterial activity of GUMBOS was evaluated by comparing it with negative controls, as well as with the antibacterial activity of the parent compounds, [Cip][HCl] and [Mox][HCl]. […] These values are determined through laboratory testing and can vary depending on the testing methodology and conditions, thus the range increase in this study to 25 mg·L^−1. Stock solutions were prepared using water for water-soluble compounds while non-water soluble compounds were reconstituted using a deionized water solution containing 5% DMSO [96]. Following that, the compounds were diluted using fresh tryptic soy broth (TSB) to achieve desired concentrations. Initially, agar media was used to grow additional bacteria to correlate absorbance readings to microbial counts. Then, a solution of 0.1 mL of S. aureus added to 10 mL of TSB was incubated at 37 °C for 24 h and repeated for three more days until enough bacteria was obtained. After centrifugation and washing steps with PBS (1×) solution until obtaining a homogenized pellet, the inoculum was then diluted to 0.06 absorbance at 630 nm or 0.5 McFarland [97]. After compounds were diluted in TSB, 100 μL of samples with 100 μL of S. aureus inoculum were then transferred to a 96-well flat bottom microtitre plate (TPP, Switzerland) which was sealed and left in incubation at 37 °C for 24 h. Absorbance was read at 630 nm with a BioTek universal microplate reader (Agilent Technologies, VT, USA) to determine the turbidity in the wells [97, 98]. Three wells were prepared per sample. To ensure the viability and growth of bacteria in the culture media, negative controls were conducted along with a positive culture using the media containing only the bacteria. [Cip][HCl] served as the reference antibacterial agent.

A short description of data set [5]: Octanol/water partition coefficient, shake-flask method. The class given is physicochemical. As to conditions: for logKO/W ± SD: octanol/water, shake-flask, mean ± standard deviation; for relative hydrophobicity from log KO/W: ranking within the [Cip]-based or [Mox]-based GUMBOS. As to the method:
Following synthesis and structural characterization of FQ-based GUMBOS, octanol/water partition coefficient (Ko/w) values were obtained through a shake-flask method with minor modifications. Initially, water and 1-octanol were saturated by agitation for 24 h at room temperature. GUMBOS were solubilized in 5 mL of water-saturated octanol (Ci), to which an equivalent volume of octanol-saturated water was added. This solution subjected to 24 h of agitation and the absorbance of the upper layer was measured at a wavelength of 280 nm. Sample concentration in octanol (Co) was determined through a calibration curve, which was created using six solutions of different concentrations (4–30 μmol·L^−1) of GUMBOS in 1-octanol. Later, GUMBOS concentration in water (Cw) were obtained by the following equation Ci − C0 = Cw. Octanol/water partition coefficient (Ko/w) values were then calculated using Ko/w = Co/Cw. Data were representative of three replicates executed for each of the GUMBOS.

Where [6] appears, read: 0.25 mg·L^−1, 24 h exposure, Figure 4a.
The mark [7] stands for this setting: 50 mg·L^−1 (highest concentration).
Where [8] appears, read: 25 mg·L^−1, 24 h exposure, Figure 4b.

Entries after “also recorded” stand apart in the source; their conditions may differ. Counter-ions that a name gives are not always drawn. Like-named read-outs stand apart in the source and are kept apart here.

As for `COc1c(N2C[C@@H]3CCCN[C@@H]3C2)c(F)cc2c(=O)c(C(=O)O)cn(C3CC3)c12.C[C@H](CCC(=O)O)[C@H]1CC[C@H]2[C@@H]3CC[C@@H]4C[C@H](O)CC[C@]4(C)[C@H]3C[C@H](O)[C@]12C` [[Mox][Dxc]], in data set [1], the Tonset was found to be 275.22 °C, the “Residue at 500 °C” value amounted to 15.60%, the Tpeak was determined as 284.97 °C and the Tstart came out at 208.92 °C.

On to `COc1c(N2C[C@@H]3CCCN[C@@H]3C2)c(F)cc2c(=O)c(C(=O)O)cn(C3CC3)c12` [[Mox][HCl], moxifloxacin hydrochloride monohydrate], for which, in data set [2], the Tonset is 240 °C, the Tpeak was 260 °C and the Tstart was 220 °C.

For `c1ccc([B-](c2ccccc2)(c2ccccc2)c2ccccc2)cc1` [[Na][TPB], sodium tetraphenylborate, reference compound], the “cytotoxicity to L929 cells (cell viability)” value (“cytotoxicity to L929 cells” below) in data set [3] (two highest concentrations (25 and 50 mg·L^−1)) was “cytotoxic”.

For the compound `O=C(O)c1cn(C2CC2)c2cc(N3CCNCC3)c(F)cc2c1=O.O=S(=O)(NS(=O)(=O)C(F)(F)F)C(F)(F)F` [[Cip][NTF2]], in data set [4] (setting [6]), the “antibacterial performance (bacterial growth) against S. aureus” value (from here on “antibacterial performance”) is “activities closer to their precursor”. In addition, in data set [1], the Tonset came out at 287.79 °C, the “Residue at 500 °C” value amounted to 39.88%, the Tpeak amounted to 295.18 °C and the Tstart was 263.57 °C. In addition, the “logKO/W ± SD” value in data set [5] came out at 0.145 ± 0.075.

As to `COc1c(N2C[C@@H]3CCCN[C@@H]3C2)c(F)cc2c(=O)c(C(=O)O)cn(C3CC3)c12.O=S(=O)(NS(=O)(=O)C(F)(F)F)C(F)(F)F` [[Mox][NTF2]], in data set [3] (setting [7]), the “cytotoxicity to L929 cells” value is on record as “slight toxicity”. Moreover, in data set [1], the Tonset was 319.64 °C, the “Residue at 500 °C” value was found to be 24.57%, the Tpeak came to 327.51 °C and the Tstart stood at 297.72 °C.

In the case of `O=C(O)c1cn(C2CC2)c2cc(N3CCNCC3)c(F)cc2c1=O.O=S(=O)(NS(=O)(=O)C(F)(F)C(F)(F)F)C(F)(F)C(F)(F)F` [[Cip][BETI]], in data set [1], the Tonset stood at 284.61 °C, the “Residue at 500 °C” value was found to be 35.43%, the Tpeak is 294.04 °C and the Tstart amounted to 266.25 °C. For the same compound, the “logKO/W ± SD” value in data set [5] is −0.314 ± 0.094.

With `O=C(O)c1cn(C2CC2)c2cc(N3CC[NH2+]CC3)c(F)cc2c1=O.c1ccc([B-](c2ccccc2)(c2ccccc2)c2ccccc2)cc1` [[Cip][TPB]], in data set [3] (setting [7]), the “cytotoxicity to L929 cells” value is reported as “some levels of cell toxicity”. In addition, in data set [1], the Tonset stood at 117.85 °C, the “Residue at 500 °C” value came out at 36.93%, the Tpeak amounted to 122.95 °C and the Tstart came out at 98.94 °C. Besides, the “logKO/W ± SD” value in data set [5] is on record as −0.464 ± 0.006.

With `O=C(O)c1cn(C2CC2)c2cc(N3CCNCC3)c(F)cc2c1=O` [[Cip][HCl], Ciprofloxacin hydrochloride monohydrate], in data set [2], the Tonset was 300 °C, the Tpeak is 318 °C and the Tstart was 150 °C.

As for `COc1c(N2C[C@@H]3CCC[NH2+][C@@H]3C2)c(F)cc2c(=O)c(C(=O)O)cn(C3CC3)c12.c1ccc([B-](c2ccccc2)(c2ccccc2)c2ccccc2)cc1` [[Mox][TPB]], the “antibacterial performance” value in data set [4] (setting [6]) is given as “activities closer to their precursor”. The “antibacterial performance” value in data set [4] (setting [8]) is on record as “significant differences from their corresponding precursors”. Further, in data set [1], the Tonset was determined as 176.37 °C, the “Residue at 500 °C” value stood at 42.13%, the Tpeak came to 177.21 °C and the Tstart was 144.02 °C.

Turning to `CCCCC(CC)COC(=O)CC(C(=O)OCC(CC)CCCC)S(=O)(=O)O.O=C(O)c1cn(C2CC2)c2cc(N3CCNCC3)c(F)cc2c1=O` (stereo not shown) [[Cip][Doc]], in data set [1], the Tonset was 286.49 °C, the “Residue at 500 °C” value worked out at 24.26%, the Tpeak is 286.64 °C and the Tstart came to 252.18 °C. For the same compound, in data set [5], the “logKO/W ± SD” value is recorded as 0.162 ± 0.015 and the “relative hydrophobicity from log KO/W” value is on record as “most hydrophobic”.

As to `CCCCC(CC)COC(=O)CC(C(=O)OCC(CC)CCCC)S(=O)(=O)O.COc1c(N2C[C@@H]3CCCN[C@@H]3C2)c(F)cc2c(=O)c(C(=O)O)cn(C3CC3)c12` [[Mox][Doc]], in data set [4] (setting [6]), the “antibacterial performance” value is “activities closer to their precursor”. Further, the “antibacterial performance” value in data set [4] (setting [8]) is “significant differences from their corresponding precursors”. In data set [1], the Tonset came out at 271.04 °C, the “Residue at 500 °C” value is 33.55%, the Tpeak came to 275.90 °C and the Tstart came out at 249.91 °C.

Take `C[C@H](CCC(=O)O)[C@H]1CC[C@H]2[C@@H]3CC[C@@H]4C[C@H](O)CC[C@]4(C)[C@H]3C[C@H](O)[C@]12C.O=C(O)c1cn(C2CC2)c2cc(N3CCNCC3)c(F)cc2c1=O` [[Cip][Dxc]]: the “cytotoxicity to L929 cells” value in data set [3] (setting [7]) is “some levels of cell toxicity; also recorded: slight toxicity”. The “antibacterial performance” value in data set [4] (setting [6]) is given as “least antimicrobial agent of all tested samples”. For the same compound, in data set [4] (setting [8]), the “antibacterial performance” value is listed as “significant differences from their corresponding precursors; also recorded: least antimicrobial agent of all tested samples”. In data set [1], the Tonset amounted to 326.23 °C, the “Residue at 500 °C” value is recorded as 19.75%, the Tpeak was found to be 332.30 °C and the Tstart came to 211.93 °C. Also, in data set [5], the “logKO/W ± SD” value was −1.110 ± 0.018 and the “relative hydrophobicity from log KO/W” value is given as “most hydrophilic”.

For the compound `COc1c(N2C[C@@H]3CCCN[C@@H]3C2)c(F)cc2c(=O)c(C(=O)O)cn(C3CC3)c12.O=S(=O)(NS(=O)(=O)C(F)(F)C(F)(F)F)C(F)(F)C(F)(F)F` [[Mox][BETI]], in data set [1], the Tonset worked out at 307.46 °C, the “Residue at 500 °C” value is listed as 32.31%, the Tpeak amounted to 322.97 °C and the Tstart is 266.98 °C.

Source of the values: article PMC10650486, “Fluoroquinolone-Based Organic Salts (GUMBOS) with Antibacterial Potential” (International Journal of Molecular Sciences, 2023).
